# Test results from the kinase profiling compilation of Christmann-Franck et al. (2016).
# Legend:
# Experiment in all cases: radiometric filter-binding kinase assay
# [1] = tested on: AKT1 (human), P31749 [S473D]
# [2] = tested on: AKT2 (human), P31751 [S474D]
# CAMKK2 (human) = CAMKK2 (human) (UniProt Q96RR4)
# CDK2 CCNA2 (human) = CDK2 CCNA2 (human) (UniProt P20248+P24941)
# CHEK1 (human) = CHEK1 (human) (UniProt O14757)
# CHEK2 (human) = CHEK2 (human) (UniProt O96017)
# CSK (human) = CSK (human) (UniProt P41240)
# CaMK1 (human) = CaMK1 (human) (UniProt Q14012)
# DYRK2 (human) = DYRK2 (human) (UniProt Q92630)
# EEF2K (human) = EEF2K (human) (UniProt O00418)
# GSK3B (human) = GSK3B (human) (UniProt P49841)
# IKBKE (human) = IKBKE (human) (UniProt Q14164)
# MAPK11 (human) = MAPK11 (human) (UniProt Q15759)
# Sequence of MAPK11 (human) (Q15759 whole entry, looked up): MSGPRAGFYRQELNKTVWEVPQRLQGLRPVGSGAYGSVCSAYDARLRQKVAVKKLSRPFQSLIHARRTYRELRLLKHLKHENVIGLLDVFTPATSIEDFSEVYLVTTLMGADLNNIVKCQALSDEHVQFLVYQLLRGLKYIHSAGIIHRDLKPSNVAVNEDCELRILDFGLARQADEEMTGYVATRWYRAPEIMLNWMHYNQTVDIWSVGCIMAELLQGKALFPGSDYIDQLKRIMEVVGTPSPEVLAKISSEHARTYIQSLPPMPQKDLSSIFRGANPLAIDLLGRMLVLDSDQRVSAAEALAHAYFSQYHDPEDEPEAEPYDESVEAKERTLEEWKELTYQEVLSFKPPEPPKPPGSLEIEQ
# MAPK14 (human) = MAPK14 (human) (UniProt Q16539)
# MAPK15 (human) = MAPK15 (human) (UniProt Q8TD08)
# Sequence of MAPK15 (human) (Q8TD08 whole entry, looked up): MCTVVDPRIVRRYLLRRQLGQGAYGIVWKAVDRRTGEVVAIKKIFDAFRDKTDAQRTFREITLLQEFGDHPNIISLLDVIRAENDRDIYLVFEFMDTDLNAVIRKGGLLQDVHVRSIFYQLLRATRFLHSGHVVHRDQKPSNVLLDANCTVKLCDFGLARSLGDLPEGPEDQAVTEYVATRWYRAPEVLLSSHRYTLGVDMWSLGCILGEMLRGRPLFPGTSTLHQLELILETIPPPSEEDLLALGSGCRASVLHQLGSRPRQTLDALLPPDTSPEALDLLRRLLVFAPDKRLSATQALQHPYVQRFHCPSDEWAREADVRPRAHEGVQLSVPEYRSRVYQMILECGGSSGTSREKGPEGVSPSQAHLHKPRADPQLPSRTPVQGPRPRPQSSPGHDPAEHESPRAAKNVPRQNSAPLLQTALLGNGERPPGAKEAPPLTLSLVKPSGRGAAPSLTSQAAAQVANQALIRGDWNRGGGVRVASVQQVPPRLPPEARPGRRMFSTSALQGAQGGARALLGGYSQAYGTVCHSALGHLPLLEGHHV
# MAPK3 (human) = MAPK3 (human) (UniProt P27361)
# Sequence of MAPK3 (human) (P27361 whole entry, looked up): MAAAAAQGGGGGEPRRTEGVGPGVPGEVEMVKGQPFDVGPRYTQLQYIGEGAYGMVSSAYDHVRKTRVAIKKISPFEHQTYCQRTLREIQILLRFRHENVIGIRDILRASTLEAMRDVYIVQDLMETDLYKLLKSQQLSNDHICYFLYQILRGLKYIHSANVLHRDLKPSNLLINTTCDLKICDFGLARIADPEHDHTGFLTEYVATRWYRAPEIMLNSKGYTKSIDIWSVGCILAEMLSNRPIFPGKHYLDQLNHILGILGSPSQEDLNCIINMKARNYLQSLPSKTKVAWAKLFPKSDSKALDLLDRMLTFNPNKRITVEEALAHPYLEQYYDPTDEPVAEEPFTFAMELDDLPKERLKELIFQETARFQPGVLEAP
# MAPK8 (human) = MAPK8 (human) (UniProt P45983)
# Sequence of MAPK8 (human) (P45983 whole entry, looked up): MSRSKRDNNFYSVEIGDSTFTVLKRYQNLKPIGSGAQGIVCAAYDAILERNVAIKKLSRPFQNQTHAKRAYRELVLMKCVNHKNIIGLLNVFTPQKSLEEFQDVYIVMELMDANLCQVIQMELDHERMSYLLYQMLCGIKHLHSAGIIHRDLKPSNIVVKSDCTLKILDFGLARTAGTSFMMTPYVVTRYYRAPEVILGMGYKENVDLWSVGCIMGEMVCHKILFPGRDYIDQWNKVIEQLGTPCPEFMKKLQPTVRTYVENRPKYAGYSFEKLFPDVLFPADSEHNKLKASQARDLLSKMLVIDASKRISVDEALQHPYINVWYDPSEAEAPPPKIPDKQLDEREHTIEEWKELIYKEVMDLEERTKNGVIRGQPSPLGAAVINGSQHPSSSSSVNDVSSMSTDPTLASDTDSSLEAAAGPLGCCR
# MAPKAPK2 (human) = MAPKAPK2 (human) (UniProt P49137)
# MAPKAPK5 (human) = MAPKAPK5 (human) (UniProt Q8IW41)
# MELK (human) = MELK (human) (UniProt Q14680)
# Sequence of MELK (human) (Q14680 whole entry, looked up): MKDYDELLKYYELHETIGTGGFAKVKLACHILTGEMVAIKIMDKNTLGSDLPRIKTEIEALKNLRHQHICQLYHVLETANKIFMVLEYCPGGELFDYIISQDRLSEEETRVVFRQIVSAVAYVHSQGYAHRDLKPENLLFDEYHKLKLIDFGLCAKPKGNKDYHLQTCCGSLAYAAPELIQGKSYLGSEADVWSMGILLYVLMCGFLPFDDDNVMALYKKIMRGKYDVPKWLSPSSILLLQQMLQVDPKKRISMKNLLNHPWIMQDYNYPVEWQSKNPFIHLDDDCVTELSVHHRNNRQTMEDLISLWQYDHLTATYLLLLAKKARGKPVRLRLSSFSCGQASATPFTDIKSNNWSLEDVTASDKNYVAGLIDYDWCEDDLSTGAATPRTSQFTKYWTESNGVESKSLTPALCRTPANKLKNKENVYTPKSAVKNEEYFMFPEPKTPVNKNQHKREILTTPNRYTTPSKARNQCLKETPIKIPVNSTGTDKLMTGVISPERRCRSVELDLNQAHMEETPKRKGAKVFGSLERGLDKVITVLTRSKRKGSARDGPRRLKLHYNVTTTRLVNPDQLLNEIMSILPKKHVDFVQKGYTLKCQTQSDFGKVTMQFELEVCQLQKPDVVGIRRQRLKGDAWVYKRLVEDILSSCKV
# MKNK1 (human) = MKNK1 (human) (UniProt Q9BUB5)
# MKNK2 (human) = MKNK2 (human) (UniProt Q9HBH9)
# MYLK (human) = MYLK (human) (UniProt Q15746)
# NEK2 (human) = NEK2 (human) (UniProt P51955)
# NEK6 (human) = NEK6 (human) (UniProt Q9HC98)
# PHKG1 (human) = PHKG1 (human) (UniProt Q16816)
# PIM1 (human) = PIM1 (human) (UniProt P11309)
# [3] = tested on: PINK1 (Tribolium castaneum); conditions: accession and sequence are those of the human protein
# PLK1 (human) = PLK1 (human) (UniProt P53350)
# Sequence of PLK1 (human) (P53350 whole entry, looked up): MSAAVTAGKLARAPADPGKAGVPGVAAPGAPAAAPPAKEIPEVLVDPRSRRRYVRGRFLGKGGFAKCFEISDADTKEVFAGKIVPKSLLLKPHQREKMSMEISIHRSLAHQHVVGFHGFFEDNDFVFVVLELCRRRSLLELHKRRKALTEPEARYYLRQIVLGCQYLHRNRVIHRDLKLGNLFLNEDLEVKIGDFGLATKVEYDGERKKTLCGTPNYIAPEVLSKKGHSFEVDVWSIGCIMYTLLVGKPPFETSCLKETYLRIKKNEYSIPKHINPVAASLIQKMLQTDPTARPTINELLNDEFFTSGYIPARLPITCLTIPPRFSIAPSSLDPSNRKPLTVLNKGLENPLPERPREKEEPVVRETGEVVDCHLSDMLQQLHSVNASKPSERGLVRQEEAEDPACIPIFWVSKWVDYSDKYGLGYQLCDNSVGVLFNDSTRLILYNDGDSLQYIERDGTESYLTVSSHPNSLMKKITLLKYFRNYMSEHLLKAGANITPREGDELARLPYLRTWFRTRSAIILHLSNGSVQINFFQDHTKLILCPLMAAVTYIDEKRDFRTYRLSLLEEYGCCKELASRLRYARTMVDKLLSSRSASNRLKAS
# PRKACA (human) = PRKACA (human) (UniProt P17612)
# PRKCA (human) = PRKCA (human) (UniProt P17252)
# ROCK2 (rat) = conditions: accession and sequence are those of the human protein
# RPS6KA1 KD1 KD2 (human) = RPS6KA1 KD1 KD2 (human) (UniProt Q15418)
# RPS6KA3 KD1 KD2 (human) = RPS6KA3 KD1 KD2 (human) (UniProt P51812)
# [4] = tested on: SGK1 (human), O00141 [S422D]
# SRC (human) = SRC (human) (UniProt P12931)
# SRPK1 (human) = SRPK1 (human) (UniProt Q96SB4)
# Sequence of SRPK1 (human) (Q96SB4 whole entry, looked up): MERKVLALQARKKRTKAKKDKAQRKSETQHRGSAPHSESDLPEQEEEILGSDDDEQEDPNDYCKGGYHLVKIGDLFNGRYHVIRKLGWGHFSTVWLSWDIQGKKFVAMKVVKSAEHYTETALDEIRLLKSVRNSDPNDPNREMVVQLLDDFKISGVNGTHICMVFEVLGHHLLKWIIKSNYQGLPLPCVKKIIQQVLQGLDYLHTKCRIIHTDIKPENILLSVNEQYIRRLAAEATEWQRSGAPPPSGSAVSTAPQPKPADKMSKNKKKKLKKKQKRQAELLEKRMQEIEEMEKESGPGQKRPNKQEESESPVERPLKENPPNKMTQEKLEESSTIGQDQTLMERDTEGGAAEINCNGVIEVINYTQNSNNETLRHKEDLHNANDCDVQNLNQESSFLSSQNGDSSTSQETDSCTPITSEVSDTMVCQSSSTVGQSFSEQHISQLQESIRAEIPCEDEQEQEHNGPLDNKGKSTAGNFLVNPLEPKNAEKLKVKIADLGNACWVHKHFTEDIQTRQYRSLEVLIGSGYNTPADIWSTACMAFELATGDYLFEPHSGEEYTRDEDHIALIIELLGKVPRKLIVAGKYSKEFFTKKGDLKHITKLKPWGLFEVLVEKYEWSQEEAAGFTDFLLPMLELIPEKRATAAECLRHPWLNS
# SYK (human) = SYK (human) (UniProt P43405)
# TBK1 (human) = TBK1 (human) (UniProt Q9UHD2)
# YES1 (human) = YES1 (human) (UniProt P07947)
# Sequence of AKT2 (human), P31751 [S474D] (P31751 whole entry S474D, looked up): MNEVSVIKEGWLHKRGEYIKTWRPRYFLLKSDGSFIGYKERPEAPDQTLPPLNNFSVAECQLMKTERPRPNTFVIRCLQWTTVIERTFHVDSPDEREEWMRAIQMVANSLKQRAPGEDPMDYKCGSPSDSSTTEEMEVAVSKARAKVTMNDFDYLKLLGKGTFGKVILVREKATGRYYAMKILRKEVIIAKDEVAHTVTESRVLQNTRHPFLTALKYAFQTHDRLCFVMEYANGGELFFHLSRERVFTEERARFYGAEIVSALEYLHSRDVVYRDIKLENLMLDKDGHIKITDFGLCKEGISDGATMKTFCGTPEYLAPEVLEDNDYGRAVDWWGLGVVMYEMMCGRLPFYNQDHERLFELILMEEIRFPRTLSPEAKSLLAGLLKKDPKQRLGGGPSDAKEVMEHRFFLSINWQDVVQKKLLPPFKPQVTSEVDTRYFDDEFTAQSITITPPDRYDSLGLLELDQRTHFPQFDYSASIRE
compound,measurement,setting,value
Oc1ccc2c(c1)C(O)c1cc(O)ccc1-2,residual activity,[1]; compound 20.0 µM,115%
same,residual activity,[2]; compound 20.0 µM,80%
same,residual activity,CAMKK2 (human); compound 20.0 µM,91%
same,residual activity,CDK2 CCNA2 (human); compound 20.0 µM,54%
same,residual activity,CHEK1 (human); compound 20.0 µM,74%
same,residual activity,CHEK2 (human); compound 20.0 µM,64%
same,residual activity,CSK (human); compound 20.0 µM,98%
same,residual activity,CaMK1 (human); compound 20.0 µM,25%
same,residual activity,DYRK2 (human); compound 20.0 µM,69%
same,residual activity,EEF2K (human); compound 20.0 µM,104%
same,residual activity,GSK3B (human); compound 20.0 µM,54%
same,residual activity,IKBKE (human); compound 20.0 µM,103%
same,residual activity,MAPK11 (human); compound 20.0 µM,106%
same,residual activity,MAPK14 (human); compound 20.0 µM,84%
same,residual activity,MAPK15 (human); compound 20.0 µM,25%
same,residual activity,MAPK3 (human); compound 20.0 µM,100%
same,residual activity,MAPK8 (human); compound 20.0 µM,97%
same,residual activity,MAPKAPK2 (human); compound 20.0 µM,48%
same,residual activity,MAPKAPK5 (human); compound 20.0 µM,61%
same,residual activity,MELK (human); compound 20.0 µM,70%
same,residual activity,MKNK1 (human); compound 20.0 µM,71%
same,residual activity,MKNK2 (human); compound 20.0 µM,65%
same,residual activity,MYLK (human); compound 20.0 µM,77%
same,residual activity,NEK2 (human); compound 20.0 µM,84%
same,residual activity,NEK6 (human); compound 20.0 µM,78%
same,residual activity,PHKG1 (human); compound 20.0 µM,77%
same,residual activity,PIM1 (human); compound 20.0 µM,19%
same,residual activity,[3]; compound 20.0 µM,68%
same,residual activity,PLK1 (human); compound 20.0 µM,66%
same,residual activity,PRKACA (human); compound 20.0 µM,76%
same,residual activity,PRKCA (human); compound 20.0 µM,94%
same,residual activity,ROCK2 (rat); compound 20.0 µM,78%
same,residual activity,RPS6KA1 KD1 KD2 (human); compound 20.0 µM,70%
same,residual activity,RPS6KA3 KD1 KD2 (human); compound 20.0 µM,80%
same,residual activity,[4]; compound 20.0 µM,70%
same,residual activity,SRC (human); compound 20.0 µM,70%
same,residual activity,SRPK1 (human); compound 20.0 µM,80%
same,residual activity,SYK (human); compound 20.0 µM,121%
same,residual activity,TBK1 (human); compound 20.0 µM,123%
same,residual activity,YES1 (human); compound 20.0 µM,72%
COc1ccc2c(c1)[nH]c1c(C)nccc12,residual activity,[1]; compound 1.0 µM,100%
same,residual activity,[2]; compound 1.0 µM,84%
same,residual activity,CAMKK2 (human); compound 1.0 µM,97%
same,residual activity,CDK2 CCNA2 (human); compound 1.0 µM,80%
same,residual activity,CHEK1 (human); compound 1.0 µM,94%
same,residual activity,CHEK2 (human); compound 1.0 µM,95%
same,residual activity,CSK (human); compound 1.0 µM,103%
same,residual activity,CaMK1 (human); compound 1.0 µM,88%
same,residual activity,DYRK2 (human); compound 1.0 µM,35%
same,residual activity,EEF2K (human); compound 1.0 µM,73%
same,residual activity,GSK3B (human); compound 1.0 µM,87%
same,residual activity,IKBKE (human); compound 1.0 µM,83%
same,residual activity,MAPK11 (human); compound 1.0 µM,92%
same,residual activity,MAPK14 (human); compound 1.0 µM,77%
same,residual activity,MAPK15 (human); compound 1.0 µM,75%
same,residual activity,MAPK3 (human); compound 1.0 µM,102%
same,residual activity,MAPK8 (human); compound 1.0 µM,70%
same,residual activity,MAPKAPK2 (human); compound 1.0 µM,87%
same,residual activity,MAPKAPK5 (human); compound 1.0 µM,97%
same,residual activity,MELK (human); compound 1.0 µM,93%
same,residual activity,MKNK1 (human); compound 1.0 µM,81%
same,residual activity,MKNK2 (human); compound 1.0 µM,84%
same,residual activity,MYLK (human); compound 1.0 µM,106%
same,residual activity,NEK2 (human); compound 1.0 µM,115%
same,residual activity,NEK6 (human); compound 1.0 µM,88%
same,residual activity,PHKG1 (human); compound 1.0 µM,84%
same,residual activity,PIM1 (human); compound 1.0 µM,74%
same,residual activity,[3]; compound 1.0 µM,98%
same,residual activity,PLK1 (human); compound 1.0 µM,96%
same,residual activity,PRKACA (human); compound 1.0 µM,104%
same,residual activity,PRKCA (human); compound 1.0 µM,94%
same,residual activity,ROCK2 (rat); compound 1.0 µM,102%
same,residual activity,RPS6KA1 KD1 KD2 (human); compound 1.0 µM,93%
same,residual activity,RPS6KA3 KD1 KD2 (human); compound 1.0 µM,78%
same,residual activity,[4]; compound 1.0 µM,78%
same,residual activity,SRC (human); compound 1.0 µM,109%
same,residual activity,SRPK1 (human); compound 1.0 µM,78%
same,residual activity,SYK (human); compound 1.0 µM,93%
same,residual activity,TBK1 (human); compound 1.0 µM,87%
same,residual activity,YES1 (human); compound 1.0 µM,100%
Oc1ccc2c(c1)oc1c3ccccc3c(O)cc21,residual activity,[1]; compound 1.0 µM,90%
same,residual activity,[2]; compound 1.0 µM,61%
same,residual activity,CAMKK2 (human); compound 1.0 µM,76%
same,residual activity,CDK2 CCNA2 (human); compound 1.0 µM,51%
same,residual activity,CHEK1 (human); compound 1.0 µM,92%
same,residual activity,CHEK2 (human); compound 1.0 µM,79%
same,residual activity,CSK (human); compound 1.0 µM,98%
same,residual activity,CaMK1 (human); compound 1.0 µM,72%
same,residual activity,DYRK2 (human); compound 1.0 µM,5%
same,residual activity,EEF2K (human); compound 1.0 µM,85%
same,residual activity,GSK3B (human); compound 1.0 µM,77%
same,residual activity,IKBKE (human); compound 1.0 µM,81%
same,residual activity,MAPK11 (human); compound 1.0 µM,87%
same,residual activity,MAPK14 (human); compound 1.0 µM,83%
same,residual activity,MAPK15 (human); compound 1.0 µM,37%
same,residual activity,MAPK3 (human); compound 1.0 µM,86%
same,residual activity,MAPK8 (human); compound 1.0 µM,81%
same,residual activity,MAPKAPK2 (human); compound 1.0 µM,80%
same,residual activity,MAPKAPK5 (human); compound 1.0 µM,95%
same,residual activity,MELK (human); compound 1.0 µM,20%
same,residual activity,MKNK1 (human); compound 1.0 µM,66%
same,residual activity,MKNK2 (human); compound 1.0 µM,55%
same,residual activity,MYLK (human); compound 1.0 µM,46%
same,residual activity,NEK2 (human); compound 1.0 µM,98%
same,residual activity,NEK6 (human); compound 1.0 µM,77%
same,residual activity,PHKG1 (human); compound 1.0 µM,45%
same,residual activity,PIM1 (human); compound 1.0 µM,10%
same,residual activity,[3]; compound 1.0 µM,80%
same,residual activity,PLK1 (human); compound 1.0 µM,104%
same,residual activity,PRKACA (human); compound 1.0 µM,101%
same,residual activity,PRKCA (human); compound 1.0 µM,101%
same,residual activity,ROCK2 (rat); compound 1.0 µM,92%
same,residual activity,RPS6KA1 KD1 KD2 (human); compound 1.0 µM,83%
same,residual activity,RPS6KA3 KD1 KD2 (human); compound 1.0 µM,40%
same,residual activity,[4]; compound 1.0 µM,80%
same,residual activity,SRC (human); compound 1.0 µM,85%
same,residual activity,SRPK1 (human); compound 1.0 µM,83%
same,residual activity,SYK (human); compound 1.0 µM,84%
same,residual activity,TBK1 (human); compound 1.0 µM,80%
same,residual activity,YES1 (human); compound 1.0 µM,95%
